In experiment [1] the test system is kynurenine production in IFN-γ-treated KATO-III cells. As to the kind of experiment: Inhibitory activity on kynurenine production (Test Example 1). The class given is cell-based. Conditions: Homo sapiens, IFN-γ treatment, culture for 96 hours, read-out: IC50 value, inhibition of kynurenine production. In outline:
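Read-out is absorbance at 480 nm of medium treated with trichloroacetic acid, then p-dimethylaminobenzaldehyde, to quantify kynurenine. DMSO-only wells with and without IFN-γ serve as references. Cells were KATO-III, 2,000 per well, 96 h at 37 °C/5% CO2 with compound (DMSO ≤0.1%) and IFN-γ at 31.25 ng/mL in the added suspension.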

The subject of experiment [2] is 4T1 mouse breast cancer cells. The experiment in a line: Antitumor effect in mice transplanted with 4T1 cells (Test Example 2). It counts as in vivo, BALB/c mice. Conditions: for T/C: oral, once or twice daily. As for the experimental part:
5-week-old BALB/c mice (male, supplied from CLEA Japan, Inc.) were purchased. After quarantine and stabilization, mice which favorably gained their weight and had no apparent abnormalities were used in the test. The test started from 6 weeks of age. The mice were housed in groups of 6 mice per plastic cage with free access to commercial solid feed and water in a breeding room in which the room temperature was 19° C. to 25° C., the humidity was 30 to 70% and the light was kept on for 12 hours a day (7:00 a.m. to 7:00 p.m.).
The abdominal hair of the BALB/c mice was shaved on the day before the test. Transplantation was performed by subcutaneous injection of a suspension containing 1×10^6 4T1 mouse breast cancer cells in 100 μL of phosphate buffered saline (PBS) from the shaved region of each mouse.
When the tumor volume reached 30 to 80 mm^3, the mice were divided into groups so that the average tumor volume of each group was equal. The test compound was suspended in 0.5% (w/v) methylcellulose 400 cP (manufactured by Wako Pure Chemical Industries, Ltd.), and the suspension was orally administered to each mouse of the corresponding group once or twice daily. The tumor volume was calculated using the formula (a×b^2)/2 (a: tumor major axis, b: tumor minor axis). The tumor volume (V) was measured twice or three times a week, and the tumor growth rate (V/V0) was calculated by division of the tumor volume (V) by the tumor volume on the day of the first administration (V0). The T/C (treatment group/control group) value was calculated by division of the V/V0 value of the test compound treatment group by the V/V0 value of the control group, based on which the antitumor effect was evaluated.
Statistical analysis was performed on the tumor volumes of the control group and the treatment group, using student's T-test. If the p value was <0.05, we considered the difference significant.

The next experiment relates to T cells. As to conditions: in the presence of IDO-expressing cancer cells and dendritic cells; cited from earlier work.
The next experiment relates to kynurenine production. Conditions: competes with tryptophan; cited from earlier work.
The subject of the next experiment is mouse melanoma cells. As to conditions: cited from earlier work.
The subject of another experiment is allogeneic pregnant mice. Conditions: cited from earlier work.
[3] abbreviates: Day 4 and Day 7 after administration.

Read-outs that look alike come from different tables or passages of the source.

On to `CC(Oc1nc2ccccc2nc1NS(=O)(=O)c1cccc(Cl)c1Cl)c1cccnc1` (stereo not shown) [Compound 16, 2,3-dichloro-N-{3-[1-(pyridin-3-yl)ethoxy]quinoxalin-2-yl}-benzenesulfonamide], for which the IC50 in experiment [1] was < 1000 nM. Moreover, the T/C in experiment [2] (Day 3, dose 100 mg/kg) is given as 0.62; in experiment [2] (Day 7, dose 100 mg/kg) it was 0.58. Also, in experiment [2] (Day 3 and Day 7 after administration), the “tumor growth inhibition (in words)” value is on record as “significantly inhibited tumor growth”.

In the case of `O=S(=O)(Nc1nc2ccccc2nc1OC(c1cccnc1)C(F)(F)F)c1cccc(Cl)c1Cl` (stereo not shown) [Compound 20, 2,3-dichloro-N-{3-[2,2,2-trifluoro-1-(pyridin-3-yl)ethoxy]-quinoxalin-2-yl}benzenesulfonamide], the IC50 in experiment [1] was < 1000 nM. The T/C in experiment [2] (Day 4, dose 10 mg/kg) was 0.68; in experiment [2] (Day 7, dose 10 mg/kg) it was 0.69. In addition, in experiment [2] (setting [3]), the “tumor growth inhibition (in words)” value was “significantly inhibited tumor growth”.

For `Cn1cc(C[C@H](N)C(=O)O)c2ccccc21` [Compound 1-MT, 1-methyltryptophan], the “suppression of T cell proliferation” value with T cells was “cancelled”. Also, the “effect on kynurenine production” value in the experiment on kynurenine production was “inhibits kynurenine production”. Besides, the antitumor effect entry is listed as “disappears” in the experiment on mouse melanoma cells (immunodeficient mice) and “shows an antitumor effect” with mouse melanoma cells (mice bearing mouse melanoma cells). Further, in the experiment on allogeneic pregnant mice, the MHC-restricted rejection result is on record as “induces major histocompatibility complex (MHC)-restricted rejection”.

With `CCCS(=O)(=O)Nc1nc2ccccc2nc1OC(c1cccnc1)C(F)(F)F` (stereo not shown) [Compound 179, N-{3-[2,2,2-trifluoro-1-(pyridin-3-yl)ethoxy]quinoxalin-2-yl}propane-1-sulfonamide], the IC50 in experiment [1] is < 1000 nM. Moreover, the T/C in experiment [2] (Day 4, dose 0.1 mg/kg) turned out to be 0.76; in experiment [2] (Day 7, dose 0.1 mg/kg), 0.50. Also, the “tumor growth inhibition (in words)” value in experiment [2] (setting [3]) was “significantly inhibited tumor growth”.

As to `N#Cc1cccc(C(Oc2nc3ccccc3nc2NS(=O)(=O)NC2CC2)C(F)(F)F)c1` (stereo not shown) [Compound 293, N-{3-[1-(3-cyanophenyl)-2,2,2-trifluoroethoxy]quinoxalin-2-yl}-N′-cyclopropyl-sulfuric diamide], the IC50 in experiment [1] is < 1000 nM.

Turning to `COc1cncc(C(Oc2nc3ccccc3nc2NS(=O)(=O)c2ccccc2Cl)C(F)(F)F)c1` (stereo not shown) [Compound 71, 2-chloro-N-{3-[2,2,2-trifluoro-1-(5-methoxypyridin-3-yl)-ethoxy]quinoxalin-2-yl}benzenesulfonamide], in experiment [1], the IC50 was < 1000 nM.

Broadly, the IC50 is the midpoint of a concentration-inhibition curve.

The values above are taken from patent US8673908B2, “Kynurenine production inhibitor” (Kyowa Hakko Kirin Co., Ltd., priority 2008, dated 2014).
